Values after ≈ are worked out from the molar mass of the structure shown. Like-named read-outs stand apart in the source and are kept apart here. Residues, ends and D or L forms follow the SMILES beside them.
Assays:
[1] = system: E. coli
[2] = system: Escherichia coli (E. Coli, ATCC 25922)
[3] = system: Acinetobacter baumannii (ATCC BAA-1605); conditions: Acinetobacter baumannii (ATCC BAA-1605)
[4] = system: Pseudomonas aeruginosa (ATCC 10145)
[5] = system: KPC
[6] = system: Klebsiella pneumoniae ATCC 13883; conditions: Klebsiella pneumonia (ATCC 13883)
[7] = system: Pseudomonas aeruginosa (ATCC BAA-1744); conditions: Pseudomonas aeruginosa (ATCC BAA-1744)
[8] = system: Pseudomonas aeruginosa (PSA, ATCC 27883); test: Synergy checkerboard assay (FIC index); assay type: cell-based; conditions: Pseudomonas aeruginosa (ATCC 27883), antibiotic alone; for MIC: ATCC27883, 24 h
[9] = system: Methicillin-resistant Staphylococcus aureus MRSA (ATCC BAA-1556)
[10] = system: Klebsiella pneumoniae (KPC, ATCC BAA-1705); conditions: Klebsiella pneumoniae (ATCC BAA-1705), antibiotic alone; for MIC of antibiotics: Table 26
[11] = system: Klebsiella pneumoniae (KPC, ATCC BAA-1705)
[12] = system: Escherichia coli (E. Coli, ATCC 25922); conditions: Escherichia coli (ATCC 25922), antibiotic alone
[13] = system: PSA
[14] = system: Pseudomonas aeruginosa (PSA, ATCC 27883)
[15] = system: Escherichia coli (ATCC BAA-2452); conditions: Escherichia coli (ATCC BAA-2452)
[16] = system: Klebsiella pneumoniae (KPC, ATCC BAA-1705); test: microbe, parasite or virus in culture; conditions: ATCCBAA1705, 24 h
[17] = system: Pseudomonas aeruginosa (PSA, ATCC 27883); test: microbe, parasite or virus in culture; conditions: ATCC27883, 24 h
[18] = system: Methicillin-resistant Staphylococcus aureus MRSA (ATCC BAA-1556); test: microbe, parasite or virus in culture; conditions: ATCCBAA1556|MRSA, 24 h
[19] = system: Klebsiella pneumoniae (KPC, ATCC BAA-1705); test: microbe, parasite or virus in culture; conditions: ATCCBAA1705, 24 h, read-out: MIC of antibiotic
[20] = system: Escherichia coli (E. Coli, ATCC 25922); test: microbe, parasite or virus in culture; conditions: ATCC25922, 24 h
[21] = Table 28, IFX-031, antibiotics alone and PHY-MIX (1:1 w/w)
[22] = Table 29, [R6W4] (IFX-318), antibiotics alone and PHY-MIX (1:1 w/w)
[23] = Table 30, [R5W4K] (IFX-315), antibiotics alone and PHY-MIX (1:1 w/w)
[24] = Table 31, [R5W4] (IFX-301), antibiotics alone and PHY-MIX (1:1 w/w)
[25] = read-out: Klebsiella pneumoniae (ATCC BAA-1705) MIC, Table 28, IFX-031, antibiotics alone and PHY-MIX (1:1 w/w)
[26] = read-out: Klebsiella pneumoniae (ATCC BAA-1705) MIC, Table 29, [R6W4] (IFX-318), antibiotics alone and PHY-MIX (1:1 w/w)
[27] = read-out: Klebsiella pneumoniae (ATCC BAA-1705) MIC, Table 30, [R5W4K] (IFX-315), antibiotics alone and PHY-MIX (1:1 w/w)
[28] = read-out: Klebsiella pneumoniae (ATCC BAA-1705) MIC, Table 31, [R5W4] (IFX-301), antibiotics alone and PHY-MIX (1:1 w/w)
[29] = read-out: Pseudomonas aeruginosa (ATCC 27883) MIC, Table 28, IFX-031, antibiotics alone and PHY-MIX (1:1 w/w)
[30] = read-out: Pseudomonas aeruginosa (ATCC 27883) MIC, Table 29, [R6W4] (IFX-318), antibiotics alone and PHY-MIX (1:1 w/w)
[31] = read-out: Pseudomonas aeruginosa (ATCC 27883) MIC, Table 30, [R5W4K] (IFX-315), antibiotics alone and PHY-MIX (1:1 w/w)
[32] = read-out: Pseudomonas aeruginosa (ATCC 27883) MIC, Table 31, [R5W4] (IFX-301), antibiotics alone and PHY-MIX (1:1 w/w)
[33] = read-out: Escherichia coli (ATCC 25922) MIC, Table 28, IFX-031, antibiotics alone and PHY-MIX (1:1 w/w)
[34] = read-out: Escherichia coli (ATCC 25922) MIC, Table 29, [R6W4] (IFX-318), antibiotics alone and PHY-MIX (1:1 w/w)
[35] = read-out: Escherichia coli (ATCC 25922) MIC, Table 30, [R5W4K] (IFX-315), antibiotics alone and PHY-MIX (1:1 w/w)
[36] = read-out: Escherichia coli (ATCC 25922) MIC, Table 31, [R5W4] (IFX-301), antibiotics alone and PHY-MIX (1:1 w/w)

Polymyxin
MIC ([1]; Table 35, E. coli ATCC 25922): 2 mg/L
MIC ([1]; Table 36, E. coli ATCC 25922): 2 mg/L
Escherichia coli (ATCC 25922) MIC [2, 21]: 2 mg/L
Escherichia coli (ATCC 25922) MIC [2, 22]: 2 mg/L
Escherichia coli (ATCC 25922) MIC [2, 23]: 2 mg/L
Escherichia coli (ATCC 25922) MIC [2, 24]: 2 mg/L
MIC ([3]; Table 35): 1 mg/L
MIC ([3]; Table 36): 1 mg/L
MIC ([4]; Table 35, Pseudomonas aeruginosa (ATCC 10145)): 2 mg/L
MIC ([4]; Table 36, Pseudomonas aeruginosa (ATCC 10145)): 2 mg/L
MIC ([5]; Table 35, Klebsiella pneumoniae (ATCC BAA-1705)): 0.5 mg/L
MIC ([5]; Table 36, Klebsiella pneumoniae (ATCC BAA-1705)): 0.5 mg/L
MIC ([6]; Table 35): 1 mg/L
MIC ([6]; Table 36): 1 mg/L
MIC ([7]; Table 35): 2 mg/L
MIC ([7]; Table 36): 2 mg/L
MIC of antibiotic ([8]; Table 25): 1 mg/L
MIC of antibiotic ([8]; Table 26): 1 mg/L
antibiotic MIC ([8]; Table 27): 1 mg/L
MRSA (ATCC BAA-1556) MIC [9, 21]: 64 mg/L
MRSA (ATCC BAA-1556) MIC [9, 22]: 64 mg/L
MRSA (ATCC BAA-1556) MIC [9, 23]: 64 mg/L
MRSA (ATCC BAA-1556) MIC [9, 24]: 64 mg/L
MIC of antibiotic [10]: 1 mg/L
MIC of antibiotic ([10]; Table 25): 1 mg/L
MIC of antibiotics [10]: 1 mg/L
Polymyxin MIC ([10]; Table 27): 0.5 mg/L
Klebsiella pneumoniae (ATCC BAA-1705) MIC [11, 21]: 1 mg/L
Klebsiella pneumoniae (ATCC BAA-1705) MIC [11, 22]: 1 mg/L
Klebsiella pneumoniae (ATCC BAA-1705) MIC [11, 23]: 1 mg/L
Klebsiella pneumoniae (ATCC BAA-1705) MIC [11, 24]: 1 mg/L
MIC of antibiotic [12]: 2 mg/L
MIC of antibiotic ([12]; Table 25): 2 mg/L
MIC of antibiotic ([12]; Table 26): 2 mg/L
Polymyxin MIC ([12]; Table 27): 2 mg/L
MIC ([13]; Table 35, P. aeruginosa ATCC 27883): 1 mg/L
MIC ([13]; Table 36, P. aeruginosa ATCC 27883): 1 mg/L
Pseudomonas aeruginosa (ATCC 27883) MIC [14, 21]: 1 mg/L
Pseudomonas aeruginosa (ATCC 27883) MIC [14, 22]: 1 mg/L
Pseudomonas aeruginosa (ATCC 27883) MIC [14, 23]: 1 mg/L
Pseudomonas aeruginosa (ATCC 27883) MIC [14, 24]: 1 mg/L
MIC ([15]; Table 35): 1 mg/L
MIC ([15]; Table 36): 1 mg/L

NC[C@H]1O[C@H](O[C@H]2[C@H](O)[C@@H](O[C@H]3O[C@H](CO)[C@@H](O)[C@H](N)[C@H]3O)[C@H](N)C[C@@H]2N)[C@H](O)[C@@H](O)[C@@H]1O [Kanamycin]
MIC [16, 25]: 64 mg/L (≈ 132 µM)
MIC [16, 26]: 64 mg/L (≈ 132 µM)
MIC [16, 27]: 64 mg/L (≈ 132 µM)
MIC [16, 28]: 64 mg/L (≈ 132 µM)
MIC ([8]; Table 25): 256 mg/L
MIC of antibiotic [10]: 64 mg/L
MIC of antibiotics [10]: 64 mg/L
MIC [17, 29]: > 64 mg/L
MIC [17, 30]: > 64 mg/L
MIC [17, 31]: > 64 mg/L
MIC [17, 32]: > 64 mg/L
MIC ([18]; read-out: MRSA (ATCC BAA-1556) MIC, Table 28, IFX-031, antibiotics alone and PHY-MIX (1:1 w/w)): > 64 mg/L
MIC ([18]; read-out: MRSA (ATCC BAA-1556) MIC, Table 29, [R6W4] (IFX-318), antibiotics alone and PHY-MIX (1:1 w/w)): > 64 mg/L
MIC ([18]; read-out: MRSA (ATCC BAA-1556) MIC, Table 30, [R5W4K] (IFX-315), antibiotics alone and PHY-MIX (1:1 w/w)): > 64 mg/L
MIC ([18]; read-out: MRSA (ATCC BAA-1556) MIC, Table 31, [R5W4] (IFX-301), antibiotics alone and PHY-MIX (1:1 w/w)): > 64 mg/L
MIC of antibiotic [12]: 32 mg/L
MIC of antibiotic ([12]; Table 25): 32 mg/L
MIC of antibiotic ([12]; Table 26): 32 mg/L
MIC [19]: 64 mg/L
MIC [20, 33]: 32 mg/L (≈ 66 µM)
MIC [20, 34]: 32 mg/L (≈ 66 µM)
MIC [20, 35]: 32 mg/L (≈ 66 µM)
MIC [20, 36]: 32 mg/L (≈ 66 µM)

N=C(N)NCCC[C@@H]1NC(=O)[C@H](CCCNC(=N)N)NC(=O)[C@H](CCCNC(=N)N)NC(=O)[C@H](CCCNC(=N)N)NC(=O)[C@H](Cc2c[nH]c3ccccc23)NC(=O)[C@H](Cc2c[nH]c3ccccc23)NC(=O)[C@H](Cc2c[nH]c3ccccc23)NC(=O)[C@H](Cc2c[nH]c3ccccc23)NC(=O)[C@H](CCCNC(=N)N)NC(=O)[C@H](CCCNC(=N)N)NC1=O [[R6W4] IFX-301] (cyclo(RRRRRRWWWW))
MIC [1]: 32 mg/L (≈ 19 µM)
MIC ([4]; ATCC 10145): 32 mg/L (≈ 19 µM)
MIC [5]: 64 mg/L (≈ 38.1 µM)
MIC [13]: 16 mg/L (≈ 9.51 µM)

C[C@H]1COc2c(N3CCN(C)CC3)c(F)cc3c(=O)c(C(=O)O)cn1c23 [Levofloxacin]
MIC [16, 25]: 32 mg/L (≈ 88.6 µM)
MIC [16, 26]: 64 mg/L (≈ 177 µM)
MIC [16, 27]: 64 mg/L (≈ 177 µM)
MIC [16, 28]: 64 mg/L (≈ 177 µM)
MIC ([8]; Table 25): 1 mg/L
MIC of antibiotic ([8]; Table 26): 1 mg/L
MIC of antibiotic [10]: 64 mg/L
MIC [17, 29]: 1 mg/L (≈ 2.77 µM)
MIC [17, 30]: 1 mg/L (≈ 2.77 µM)
MIC [17, 31]: 1 mg/L (≈ 2.77 µM)
MIC [17, 32]: 1 mg/L (≈ 2.77 µM)
MIC of antibiotic [12]: 64 mg/L
MIC of antibiotic ([12]; Table 25): 64 mg/L
MIC of antibiotic ([12]; Table 26): 64 mg/L
MIC [19]: 64 mg/L
MIC [20, 33]: 16 mg/L (≈ 44.3 µM)
MIC [20, 34]: 64 mg/L (≈ 177 µM)
MIC [20, 35]: 64 mg/L (≈ 177 µM)
MIC [20, 36]: 64 mg/L (≈ 177 µM)
